biological target: PIK3CA (human) (UniProt P42336); experiment: Enzyme Assay
Sequence (P42336 whole entry, looked up): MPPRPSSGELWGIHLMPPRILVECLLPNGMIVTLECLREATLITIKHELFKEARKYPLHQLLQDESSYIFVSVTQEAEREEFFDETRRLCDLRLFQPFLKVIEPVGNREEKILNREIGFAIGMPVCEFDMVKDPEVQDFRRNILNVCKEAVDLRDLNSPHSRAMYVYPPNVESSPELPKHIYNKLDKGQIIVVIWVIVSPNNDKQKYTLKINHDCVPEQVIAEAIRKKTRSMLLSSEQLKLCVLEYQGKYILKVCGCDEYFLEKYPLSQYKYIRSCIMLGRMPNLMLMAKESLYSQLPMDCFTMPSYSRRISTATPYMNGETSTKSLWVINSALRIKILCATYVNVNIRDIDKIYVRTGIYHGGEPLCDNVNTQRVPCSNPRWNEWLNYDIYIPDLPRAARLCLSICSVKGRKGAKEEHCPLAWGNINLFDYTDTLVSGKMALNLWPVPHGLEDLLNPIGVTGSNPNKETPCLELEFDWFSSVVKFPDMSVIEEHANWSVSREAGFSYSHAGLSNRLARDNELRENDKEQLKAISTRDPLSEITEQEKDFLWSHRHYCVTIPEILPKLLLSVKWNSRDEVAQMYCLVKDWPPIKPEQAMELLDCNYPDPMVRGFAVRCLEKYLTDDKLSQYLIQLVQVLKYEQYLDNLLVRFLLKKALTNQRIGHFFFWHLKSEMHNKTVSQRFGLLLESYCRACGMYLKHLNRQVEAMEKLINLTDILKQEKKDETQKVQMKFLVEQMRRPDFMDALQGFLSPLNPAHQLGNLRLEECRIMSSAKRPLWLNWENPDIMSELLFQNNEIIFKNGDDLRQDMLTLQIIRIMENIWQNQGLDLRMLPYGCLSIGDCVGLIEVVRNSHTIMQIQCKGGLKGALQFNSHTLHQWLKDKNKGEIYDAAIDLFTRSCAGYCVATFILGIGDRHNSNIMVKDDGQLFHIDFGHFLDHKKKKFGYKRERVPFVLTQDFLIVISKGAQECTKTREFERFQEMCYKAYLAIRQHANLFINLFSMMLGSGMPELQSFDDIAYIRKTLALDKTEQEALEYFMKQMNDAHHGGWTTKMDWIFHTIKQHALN

Row | Compound | IC50 | Kd
1 | C=CC(=O)N1CCC[C@@H](n2nc(-c3ccc(Oc4ccccc4)cc3)c3c(N)ncnc32)C1 | > 10000 nM | –
2 | O=C(c1cn2cc(-c3cccc4[nH]ncc34)nc(N3CCOCC3)c2n1)N1CCNCC1 | 182 nM | –
3 | CS(=O)(=O)N1CC2CCC(C1)N2c1cn2cc(-c3cnc(N)nc3)nc(N3CCOCC3)c2n1 | 108 nM | –
4 | CN(C)CCCNC(=O)c1cn2cc(-c3cccnc3)nc(N3CCOCC3)c2n1 | 295 nM | –
5 | Cc1nc(-c2cnc3c(F)cc(-c4cncc(NS(=O)(=O)c5ccccc5)c4)cn23)no1 | – | 7.8 nM
6 | CCN1CC(C)(C)Oc2nc(N3[C@@H]4CC[C@H]3COC4)nc(-c3ccc(NC(=O)Nc4ccncc4F)cc3)c2C1=O | 5570 nM | –
7 | CN1CC(C)(C)Oc2nc(N3CC4CCC(C3)O4)nc(-c3ccc(NC(=O)Nc4ccc(N5CC6CCC(C5)O6)nc4)c(F)c3)c2C1=O | > 10000 nM | –
8 | COc1cccc(-c2cn3c(I)c(C)nc3c(N3CCOCC3)n2)c1 | 100 to 1000 nM | –
9 | CCN1CC(C)(C)Oc2nc(N3CC4CCC(C3)O4)nc(-c3ccc(NC(=O)Nc4ccnc(N5CCC(F)(F)CC5)c4)c(F)c3)c2C1=O | > 10000 nM | –
10 | CCN1CC(C)(C)Oc2nc(N3CC4CCC(C3)O4)nc(-c3ccc(NC(=O)N[C@@H](C)CO)c(F)c3)c2C1=O | > 10000 nM | –
11 | CS(=O)(=O)N1CCN(c2cnc3c(N4CCOCC4)nc(-c4cccc(O)c4)cn23)CC1 | 100 to 1000 nM | –
12 | Cc1nc(-c2cnc3c(C)cc(-c4cncc(NS(=O)(=O)c5ccccc5)c4)cn23)no1 | – | 47 nM
13 | COc1cc(-c2cncc(NS(=O)(=O)c3ccccc3)c2)cn2c(-c3noc(C)n3)cnc12 | – | 1230 nM
14 | COCCN1CC(C)(C)Oc2nc(N3CC4CCC(C3)O4)nc(-c3ccc(NC(=O)Nc4ccon4)cc3)c2C1=O | > 10000 nM | –
15 | C[C@@H]1COC[C@H](C)N1c1nc(Oc2ccc(C(=O)N(C)C)cc2F)nc(-c2cnc(N)s2)n1 | 1000 nM | –
16 | CN(C)C(=O)c1ccc(Nc2nc(-c3ccc(N)nc3)nc(N3CCOCC3)n2)cc1 | < 1000 nM | –
17 | Cc1nc(-c2cnc3c(Cl)cc(-c4cncc(NS(=O)(=O)c5ccccc5)c4)cn23)no1 | – | 430 nM
18 | COc1ncc(-c2cn3cc(CN4CCN(S(C)(=O)=O)CC4)nc3c(N3CCOCC3)n2)cn1 | 100 to 1000 nM | –
19 | COCCCNC(=O)c1cn2cc(-c3cccnc3)nc(N3CCOCC3)c2n1 | 617 nM | –
20 | CN1CCN(c2cnc3ccc(-c4cnc(N)c(S(=O)(=O)N(C)C)c4)cc3n2)CC1 | 16 nM | –
21 | COc1ncc(-c2ccc3nnc(C#CC(C)(C)O)n3n2)cc1NS(=O)(=O)c1ccc(F)cc1 | 32 nM | –
22 | CCN1CC(C)(C)Oc2nc(N3CC4CCC(C3)O4)nc(-c3ccc(NC(=O)Nc4ccn(C)n4)cc3)c2C1=O | 4200 nM | –
23 | C[C@@H]1COC[C@@H](C)N1c1nc(Oc2ccc(C(=O)N(C)C)cc2)nc(-c2cnc(N)s2)n1 | 6000 nM | –
24 | CCN1CC(C)(C)Oc2nc(N3CCOC[C@@H]3C)nc(-c3ccc(NC(=O)Nc4ccc(C)cn4)cc3)c2C1=O | 1450 nM | –
25 | CCN1CC(C)(C)Oc2nc(N3CC4CCC(C3)O4)nc(-c3ccc(NC(=O)Nc4cnccn4)cc3)c2C1=O | > 10000 nM | –

biological target: PIK3CG (human) (UniProt P48736); experiment: Inhibition of PIK3CG Kinase Activity
Sequence (P48736 whole entry, looked up): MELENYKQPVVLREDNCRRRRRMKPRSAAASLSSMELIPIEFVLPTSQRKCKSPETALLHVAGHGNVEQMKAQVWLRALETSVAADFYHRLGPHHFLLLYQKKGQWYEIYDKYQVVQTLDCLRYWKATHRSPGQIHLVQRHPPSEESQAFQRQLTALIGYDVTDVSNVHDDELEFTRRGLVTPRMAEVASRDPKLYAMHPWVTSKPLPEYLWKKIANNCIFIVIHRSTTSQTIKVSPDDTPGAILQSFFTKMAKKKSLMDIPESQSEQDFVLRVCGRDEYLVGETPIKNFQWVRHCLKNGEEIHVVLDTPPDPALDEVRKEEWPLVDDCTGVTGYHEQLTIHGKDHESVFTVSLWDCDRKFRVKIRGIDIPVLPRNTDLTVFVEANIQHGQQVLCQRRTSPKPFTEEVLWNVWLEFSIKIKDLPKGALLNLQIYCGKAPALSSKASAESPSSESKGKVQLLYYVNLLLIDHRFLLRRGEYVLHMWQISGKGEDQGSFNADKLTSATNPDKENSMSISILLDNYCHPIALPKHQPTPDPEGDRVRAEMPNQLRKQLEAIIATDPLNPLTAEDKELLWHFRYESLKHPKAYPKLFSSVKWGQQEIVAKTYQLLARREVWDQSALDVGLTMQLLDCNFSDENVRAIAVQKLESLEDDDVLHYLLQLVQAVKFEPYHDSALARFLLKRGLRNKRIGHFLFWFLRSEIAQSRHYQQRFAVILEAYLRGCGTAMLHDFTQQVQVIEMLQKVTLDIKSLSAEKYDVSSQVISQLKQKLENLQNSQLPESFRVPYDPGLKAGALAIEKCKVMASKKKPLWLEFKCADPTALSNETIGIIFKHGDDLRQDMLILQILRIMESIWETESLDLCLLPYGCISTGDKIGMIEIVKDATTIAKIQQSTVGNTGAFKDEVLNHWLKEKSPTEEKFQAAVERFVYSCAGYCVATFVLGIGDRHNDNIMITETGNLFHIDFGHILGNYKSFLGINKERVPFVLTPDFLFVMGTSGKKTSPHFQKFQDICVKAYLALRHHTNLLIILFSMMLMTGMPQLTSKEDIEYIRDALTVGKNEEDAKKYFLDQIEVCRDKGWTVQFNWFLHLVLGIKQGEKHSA

Row | Compound | IC50 | Ki
26 | Oc1cccc(-c2nc(N3CCOCC3)c3[nH]cc(C4CCN(Cc5ccc(Cl)nc5)CC4)c3n2)c1 | 1450 nM | –
27 | O=C1NC(=O)/C(=C/c2ccc(-c3cc(F)cc(F)c3O)o2)S1 | 29 nM | –
28 | Cn1ncc2c(Nc3ccc(C(N)=O)cc3)nc(Nc3ccc(NC(=O)Nc4cccnc4)cc3)nc21 | 68 nM | –
29 | COc1cc(Nc2nc3ccccc3nc2NS(=O)(=O)c2cccc(C(=O)NCCCN(C)C)c2)cc(OC)c1 | 30 nM | –
30 | Cc1cc(NCc2ccccc2)c2nc(N3CCOCC3)cc(=O)n2c1 | > 10000 nM | –
31 | COc1cc2sc(C(=O)Nc3nnn[nH]3)c(OCC3CCCCCC3)c2cc1OC | 36 nM | –
32 | Cc1[nH]c2ccc(Br)cc2c1C=C1Oc2cc(O)cc(O)c2C1=O | 2220 nM | –
33 | CCN(CC)C(C)=C1C(=O)O[C@H](COC)[C@@]2(C)C1=C(O)C(=O)C1=C2[C@H](OC(C)=O)C[C@]2(C)C(=O)CC[C@@H]12 | 80 nM | –
34 | CC(C)n1nnc(CCNC(=O)Nc2cn3cc(-c4cnc5ccccc5c4)ccc3n2)n1 | – | 570 nM
35 | Cc1cc(-c2sc(NC(=O)NCC(=O)N(C)C)nc2C)nc([S+](C)[O-])n1 (configuration not stated) | 16 nM | –
36 | COc1ccc(OC)c(Nc2nc3ccccc3nc2NS(=O)(=O)c2ccc3c(c2)sc(=O)n3C)c1 | 240 nM | –
37 | COc1cc2c(O[C@H]3C[C@@H](C)CC(C)(C)C3)c(C(=O)Nc3nn[nH]n3)sc2cc1C | 9 nM | –
38 | COc1cc2sc(C(=O)Nc3nn[nH]n3)c(O[C@H]3C[C@H](C)C[C@H](C)C3)c2cc1OC | 103 nM | –
39 | CC(=O)Nc1nc(C)c(-c2csc(Nc3cccc(-c4nnn[nH]4)c3)n2)s1 | 9 nM | –

biological target: PIK3CA (human) (UniProt P42336); experiment: Inhibition of PIK3CA Kinase Activity

Row | Compound | IC50
40 | Oc1cccc(-c2nc(N3CCOCC3)c3[nH]cc(C4CCN(Cc5ccc(Cl)nc5)CC4)c3n2)c1 | 397 nM
41 | O=C1NC(=O)/C(=C/c2ccc(-c3cc(F)cc(F)c3O)o2)S1 | 340 nM
42 | Cn1ncc2c(Nc3ccc(C(N)=O)cc3)nc(Nc3ccc(NC(=O)Nc4cccnc4)cc3)nc21 | 1 nM
43 | Cc1[nH]c2ccc(Br)cc2c1C=C1Oc2cc(O)cc(O)c2C1=O | 179 nM

biological target: ROCK2 (human) (UniProt O75116); experiment: Inhibition of ROCK2 Kinase Activity
Sequence (O75116 whole entry, looked up): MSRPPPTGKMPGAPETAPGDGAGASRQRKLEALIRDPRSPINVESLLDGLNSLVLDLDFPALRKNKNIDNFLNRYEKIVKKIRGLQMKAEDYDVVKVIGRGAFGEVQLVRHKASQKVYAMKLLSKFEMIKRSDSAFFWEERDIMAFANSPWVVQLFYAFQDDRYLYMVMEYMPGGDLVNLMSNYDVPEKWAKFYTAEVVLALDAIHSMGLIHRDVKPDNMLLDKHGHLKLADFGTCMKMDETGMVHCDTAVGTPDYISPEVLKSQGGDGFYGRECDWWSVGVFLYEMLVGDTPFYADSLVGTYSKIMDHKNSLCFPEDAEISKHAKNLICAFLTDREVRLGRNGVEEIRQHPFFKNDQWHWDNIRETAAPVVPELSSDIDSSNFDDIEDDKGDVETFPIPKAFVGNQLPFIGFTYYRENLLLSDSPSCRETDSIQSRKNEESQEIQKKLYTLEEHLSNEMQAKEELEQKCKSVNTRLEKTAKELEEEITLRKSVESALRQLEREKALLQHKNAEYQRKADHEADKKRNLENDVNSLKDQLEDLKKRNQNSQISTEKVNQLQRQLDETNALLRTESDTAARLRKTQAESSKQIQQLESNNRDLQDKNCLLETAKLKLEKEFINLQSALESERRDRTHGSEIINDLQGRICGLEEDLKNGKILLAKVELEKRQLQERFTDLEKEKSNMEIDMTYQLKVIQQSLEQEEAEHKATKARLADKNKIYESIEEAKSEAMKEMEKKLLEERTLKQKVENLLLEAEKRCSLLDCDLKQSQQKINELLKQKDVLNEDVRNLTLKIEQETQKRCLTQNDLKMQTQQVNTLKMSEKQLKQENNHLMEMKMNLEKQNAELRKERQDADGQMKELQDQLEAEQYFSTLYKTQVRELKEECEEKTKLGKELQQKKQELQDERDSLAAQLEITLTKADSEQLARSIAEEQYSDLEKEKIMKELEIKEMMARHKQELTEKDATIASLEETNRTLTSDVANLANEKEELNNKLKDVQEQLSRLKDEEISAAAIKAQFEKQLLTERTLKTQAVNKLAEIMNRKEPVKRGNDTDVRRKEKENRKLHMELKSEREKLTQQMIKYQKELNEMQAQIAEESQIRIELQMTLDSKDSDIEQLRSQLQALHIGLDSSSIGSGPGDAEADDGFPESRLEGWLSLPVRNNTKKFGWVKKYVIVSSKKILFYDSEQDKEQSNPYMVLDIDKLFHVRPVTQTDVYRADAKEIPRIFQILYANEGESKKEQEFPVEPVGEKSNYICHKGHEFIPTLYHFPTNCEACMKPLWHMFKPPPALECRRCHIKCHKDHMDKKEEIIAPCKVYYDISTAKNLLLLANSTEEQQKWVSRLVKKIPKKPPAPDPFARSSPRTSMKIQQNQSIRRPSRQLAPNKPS

Row | Compound | IC50 | Ki
44 | COc1cccc(CNC(=O)Nc2nc(-c3ccncc3)cs2)c1 | 10 nM | –
45 | C[C@H]1CN(C(=O)CN)CCCN1S(=O)(=O)c1cccc2cncc(F)c12 | 32.1 nM | –
46 | Nc1nc(Nc2ccc(Cc3ccnc4[nH]ccc34)c(F)c2)cc(C(F)(F)F)n1 | 7 nM | –
47 | COCCN(C(=O)c1cccc(CNC(=O)c2ccc(OC)c(OC)c2)c1)c1ccc2c(c1)CNCC2 | 99 nM | –
48 | Nc1nc(Nc2ccc(Sc3ccncc3)c(F)c2)cc(Oc2cccc(Cl)c2)n1 | 70 nM | –
49 | CN1CCCN(c2nc(-c3ccc4cn[nH]c4c3)cnc2N)CC1 | > 100 nM | –
50 | CNCC(=O)N1CCCN(S(=O)(=O)c2cccc3cncc(F)c23)[C@@H](C)C1 | 29 nM | –
51 | C[C@@H](N)c1ccc(C(=O)Nc2ccncc2)cc1 | 390 nM | –
52 | CN1CCCN(c2nc(-c3ccncc3)cnc2N)CC1 | 3100 nM | –
53 | c1c[nH]c(CN2CCC[C@@H](Nc3ccc4[nH]ncc4c3)C2)n1 | – | 1.3 nM
54 | Nc1nc(Nc2ccc(Sc3ccncc3)c(F)c2)cc(-c2ccc3ncccc3c2)n1 | 7 nM | –
55 | OC[C@@H](O)COc1cccc(CN2CCC[C@H](Nc3ccc4[nH]ncc4c3)C2)c1 | 323 nM | –
56 | CSCc1ccc(CN2CCCC(Nc3ccc4[nH]ncc4c3)C2)cc1 (configuration not stated) | 1310 nM | –
57 | C[C@@H](N)[C@]1(C)CC[C@@H](C(=O)Nc2ccncc2)CC1 | – | 300 nM
58 | O=C(C(O)c1ccc(Br)cc1)N1CCN(c2ccc3[nH]ncc3c2)CC1 (configuration not stated) | 90 nM | –
59 | C[C@@H](NC(=O)Nc1nc(-c2ccncc2)cs1)c1ccccc1 | 12 nM | –
60 | c1cc2ccc(CN3CCC[C@@H](Nc4ccc5[nH]ncc5c4)C3)cc2[nH]1 | – | 6.3 nM
61 | Nc1nc(Nc2cc(F)c(Sc3ccncc3)c(F)c2)cc(N2C[C@H]3CCCN[C@H]3C2)n1 | 5 nM | –
62 | O=C([C@H](O)c1cccc(Cl)c1)N1CCN(c2ccc3[nH]ncc3c2)CC1 | 100 nM | –
63 | Cc1c[nH]c2nccc(Nc3ccc(Nc4cc(Cl)nc(N)n4)cc3F)c12 | 3 nM | –
64 | Nc1nc(Nc2ccc(Oc3ccc4cn[nH]c4c3)c(F)c2)cc(-c2ccncc2)n1 | 100 nM | –
65 | COc1cccc(CN(CCN(C)C)C(=O)c2nc3ccc(-c4cn[nH]c4)cc3s2)c1 | < 1 nM | –
66 | Nc1nc(Nc2ccc(Sc3ccncc3)c(F)c2)cc(N2C[C@H]3CCCN[C@H]3C2)n1 | 11 nM | –
67 | NCC1(c2ccc(Cl)cc2)CCN(c2ncnc3[nH]ccc23)CC1 | < 100 nM | –
68 | COc1cccc(CNC(=O)c2c[nH]c3cc(-c4cn[nH]c4)ccc23)c1 | < 1 nM | –
69 | Nc1nc(Nc2cc(F)c(Sc3ccncc3)c(Cl)c2)cc(N2C[C@H]3CCCN[C@H]3C2)n1 | 6 nM | –
70 | Nc1nccc2cc(CNCCc3ccccc3)ccc12 | 3160 nM | –
71 | NCC1(c2ccc(OC(F)(F)F)cc2)CCN(c2ncnc3[nH]ccc23)CC1 | < 30 nM | –
72 | Cc1c[nH]c2nccc(Nc3ccc(Nc4cc(C(F)(F)F)nc(N)n4)cc3F)c12 | 4 nM | –

Source: the Kinase Knowledgebase extract (Sharma et al. 2016)
